Measurements: paper doi:10.1101/2024.12.24.629646v1 (biorxiv, 2024)

Target: mGlu5 WT (Homo sapiens, UniProt P41594)
Test: cell-based
Design: species or system HEK293

Sequence of mGlu5 WT (P41594 whole entry): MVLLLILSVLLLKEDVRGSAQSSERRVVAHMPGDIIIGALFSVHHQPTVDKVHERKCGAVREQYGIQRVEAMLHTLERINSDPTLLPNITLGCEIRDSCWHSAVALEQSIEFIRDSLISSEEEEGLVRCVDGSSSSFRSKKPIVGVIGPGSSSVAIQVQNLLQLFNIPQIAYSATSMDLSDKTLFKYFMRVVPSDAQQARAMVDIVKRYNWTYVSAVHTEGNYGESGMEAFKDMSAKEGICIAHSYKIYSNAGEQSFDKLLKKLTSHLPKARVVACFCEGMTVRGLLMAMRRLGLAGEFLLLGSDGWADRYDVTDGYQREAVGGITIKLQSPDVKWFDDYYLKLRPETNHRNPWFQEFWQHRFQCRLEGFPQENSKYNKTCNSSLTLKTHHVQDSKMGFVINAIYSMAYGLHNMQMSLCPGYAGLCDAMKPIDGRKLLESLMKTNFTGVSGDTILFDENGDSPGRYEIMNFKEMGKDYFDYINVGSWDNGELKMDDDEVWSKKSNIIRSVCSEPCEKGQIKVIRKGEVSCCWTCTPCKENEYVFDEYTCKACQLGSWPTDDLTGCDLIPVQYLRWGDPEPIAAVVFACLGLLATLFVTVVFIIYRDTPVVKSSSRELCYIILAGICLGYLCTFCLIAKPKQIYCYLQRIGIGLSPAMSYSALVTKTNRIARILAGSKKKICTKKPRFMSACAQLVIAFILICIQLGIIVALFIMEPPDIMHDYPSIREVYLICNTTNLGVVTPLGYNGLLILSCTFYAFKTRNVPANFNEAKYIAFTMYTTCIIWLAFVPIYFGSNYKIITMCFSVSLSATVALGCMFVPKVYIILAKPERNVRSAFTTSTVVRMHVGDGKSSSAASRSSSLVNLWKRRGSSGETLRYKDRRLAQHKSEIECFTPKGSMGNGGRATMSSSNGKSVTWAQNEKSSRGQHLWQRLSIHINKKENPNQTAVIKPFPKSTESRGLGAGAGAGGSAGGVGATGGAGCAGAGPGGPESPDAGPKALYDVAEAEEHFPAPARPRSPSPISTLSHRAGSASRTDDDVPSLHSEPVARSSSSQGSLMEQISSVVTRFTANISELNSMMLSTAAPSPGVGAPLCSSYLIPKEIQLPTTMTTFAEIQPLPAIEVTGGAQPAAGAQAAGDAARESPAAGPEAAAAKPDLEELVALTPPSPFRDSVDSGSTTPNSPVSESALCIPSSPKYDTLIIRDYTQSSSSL

EC50 [µM] | Structure (SMILES)
0.00525 | C[C@@H](NC(=O)c1ccc(C#Cc2cccc(F)c2)cn1)C(C)(C)O [compound 1, VU0424465]
1.17 | C[C@@H](NC(=O)c1ccc(/N=N/c2cccc(F)c2)cn1)C(C)(C)O [compound 2, (R,E)-5-((3-fluorophenyl)diazenyl)-N-(3-hydroxy-3-methylbutan-2-yl)picolinamide]
